Reference: PubChem BioAssay (NCI)
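Cells were grown in 96-well plates and exposed to each compound for 48 hours at five concentrations; endpoints were interpolated linearly between bracketing concentrations, or set to the highest concentration if not reached. GI50: concentration for 50% inhibition of growth. The concentration for full growth arrest is given as TGI.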

What was measured:
Assay in all cases: NCI-60 cell line screen, 48 h
HL-60(TB) leukemia = system: HL-60(TB) leukemia
UACC-62 melanoma = system: UACC-62 melanoma
HT29 colon = system: HT29 colon
HCT-15 colon = system: HCT-15 colon
PC-3 prostate = system: PC-3 prostate
EKVX NSCLC = system: EKVX NSCLC
NCI/ADR-RES ovarian = system: NCI/ADR-RES ovarian
NCI-H522 lung = system: NCI-H522 lung
UO-31 renal = system: UO-31 renal
LOX IMVI melanoma = system: LOX IMVI melanoma
OVCAR-4 ovarian = system: OVCAR-4 ovarian
KM12 colon = system: KM12 colon
U251 CNS = system: U251 CNS
SF-539 CNS = system: SF-539 CNS
HCT-116 colon = system: HCT-116 colon
A549 NSCLC = system: A549 NSCLC
786-0 renal = system: 786-0 renal
COLO 205 colon = system: COLO 205 colon
M14 melanoma = system: M14 melanoma
OVCAR-3 ovarian = system: OVCAR-3 ovarian
OVCAR-5 ovarian = system: OVCAR-5 ovarian
T-47D breast = system: T-47D breast
HCC-2998 colon = system: HCC-2998 colon
SNB-19 CNS = system: SNB-19 CNS
SK-MEL-2 melanoma = system: SK-MEL-2 melanoma
TK-10 renal = system: TK-10 renal
MCF7 breast = system: MCF7 breast

Compound `COc1ccc(/C=C/C(=O)C(=O)/C=C/c2ccc(OC)c(OC)c2)cc1OC` has a GI50 (HL-60(TB) leukemia) of 2.36 µM, a TGI (HL-60(TB) leukemia) of 16.9 µM and a GI50 (UACC-62 melanoma) of 1.92 µM. It also gave a TGI (UACC-62 melanoma) of 4.87 µM, a GI50 (HT29 colon) of 0.763 µM and a TGI (HT29 colon) of 2.62 µM. For the same compound, the GI50 (HCT-15 colon) was 0.769 µM, the TGI (HCT-15 colon) was 6.18 µM and the GI50 (PC-3 prostate) was 3.3 µM. It also gave a TGI (PC-3 prostate) greater than 100 µM, a GI50 (EKVX NSCLC) of 5 µM and a TGI (EKVX NSCLC) greater than 100 µM. For the same compound, the GI50 (NCI/ADR-RES ovarian) was 4.2 µM, the TGI (NCI/ADR-RES ovarian) was greater than 100 µM and the GI50 (NCI-H522 lung) was 3.75 µM. The TGI (NCI-H522 lung) was 19.3 µM, the GI50 (UO-31 renal) was 1.63 µM and the TGI (UO-31 renal) was 3.41 µM. The GI50 (LOX IMVI melanoma) was 1.46 µM, the TGI (LOX IMVI melanoma) was 3.21 µM and the GI50 (OVCAR-4 ovarian) was 4.07 µM. It also gave a TGI (OVCAR-4 ovarian) greater than 100 µM, a GI50 (KM12 colon) of 1.6 µM and a TGI (KM12 colon) of 3.67 µM. For the same compound, the GI50 (U251 CNS) was 1.53 µM, the TGI (U251 CNS) was 3.6 µM and the GI50 (SF-539 CNS) was 2.13 µM. The TGI (SF-539 CNS) was 5.16 µM, the GI50 (HCT-116 colon) was 0.319 µM and the TGI (HCT-116 colon) was 1.33 µM. For the same compound, the GI50 (A549 NSCLC) was greater than 100 µM, the TGI (A549 NSCLC) was greater than 100 µM and the GI50 (786-0 renal) was 2.28 µM. It also gave a TGI (786-0 renal) of 7.88 µM, a GI50 (COLO 205 colon) of 1.9 µM and a TGI (COLO 205 colon) of 4.95 µM. For the same compound, the GI50 (M14 melanoma) was 1.69 µM, the TGI (M14 melanoma) was 4.4 µM and the GI50 (OVCAR-3 ovarian) was 2.84 µM. The TGI (OVCAR-3 ovarian) was 9.9 µM, the GI50 (OVCAR-5 ovarian) was 2.5 µM and the TGI (OVCAR-5 ovarian) was 8.08 µM. It also gave a GI50 (T-47D breast) of 2.26 µM, a TGI (T-47D breast) greater than 100 µM and a GI50 (HCC-2998 colon) of 1.72 µM. The TGI (HCC-2998 colon) was 3.21 µM, the GI50 (SNB-19 CNS) was 3.11 µM and the TGI (SNB-19 CNS) was 23.3 µM. For the same compound, the GI50 (SK-MEL-2 melanoma) was 30.6 µM, the TGI (SK-MEL-2 melanoma) was greater than 100 µM and the GI50 (TK-10 renal) was 3.83 µM. For the same compound, the TGI (TK-10 renal) was 25 µM and the GI50 (MCF7 breast) was 0.516 µM.
